In one assay the target is T1, PDGF-Ra (Homo sapiens, UniProt P16234).
T1 construct: host or cells: G-292 human osteosarcoma cells
Briefly: Inhibitory activity against PDGF-Ra phosphorylation by PDGF-AA stimulation using G292. The class given is cell-based. As to conditions: for IC50: > means inhibition at indicated concentration not more than 50%, < and << not less than 50%, read-out: PDGF (E) IC50; for inhibition at 0.1 µM: G292, figure within parentheses in >100( ), at 100 nM, read-out: PDGF (E) inhibition (%) at 100 nM. An outline of the steps: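 G-292 human osteosarcoma cells in 0.1% FBS medium overnight, given compound for 1 hr at 37° C, then PDGF-AA 50 ng/ml for 5 min. Lysates captured on anti-phosphotyrosine (PY-20) plates and probed with anti-PDGF-Ra plus HRP secondary; absorbance at 450 nm.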

For another assay, the target named is T2, c-kit (Homo sapiens, UniProt P10721).
T2 construct: MO7e (human megakaryocytic leukemia cell line) which had been arrested for 20 hr; endogenous in cells; host or cells: MO7e human megakaryocytic leukemia cell line
Briefly: Inhibitory activity against c-kit autophosphorylation (MO7e cells, h-SCF). As to conditions: for IC50: MO7e cells, 50 ng/ml h-SCF, read-out: c-kit IC50; for inhibition at 1 µM: Mo7e, figure within parentheses in −( ) or >1000( ), at 1000 nM. The class given is cell-based. The gist of the method:
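Growth-arrested (20 hr) MO7e; cpd in DMSO, 1 hr; h-SCF 50 ng/ml, 5 min; lyse. ELISA: anti-pTyr (PY-20) capture, anti-c-kit 1° Ab, HRP anti-rabbit 2° Ab, A450.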

T1 sequence (P16234 24-1089): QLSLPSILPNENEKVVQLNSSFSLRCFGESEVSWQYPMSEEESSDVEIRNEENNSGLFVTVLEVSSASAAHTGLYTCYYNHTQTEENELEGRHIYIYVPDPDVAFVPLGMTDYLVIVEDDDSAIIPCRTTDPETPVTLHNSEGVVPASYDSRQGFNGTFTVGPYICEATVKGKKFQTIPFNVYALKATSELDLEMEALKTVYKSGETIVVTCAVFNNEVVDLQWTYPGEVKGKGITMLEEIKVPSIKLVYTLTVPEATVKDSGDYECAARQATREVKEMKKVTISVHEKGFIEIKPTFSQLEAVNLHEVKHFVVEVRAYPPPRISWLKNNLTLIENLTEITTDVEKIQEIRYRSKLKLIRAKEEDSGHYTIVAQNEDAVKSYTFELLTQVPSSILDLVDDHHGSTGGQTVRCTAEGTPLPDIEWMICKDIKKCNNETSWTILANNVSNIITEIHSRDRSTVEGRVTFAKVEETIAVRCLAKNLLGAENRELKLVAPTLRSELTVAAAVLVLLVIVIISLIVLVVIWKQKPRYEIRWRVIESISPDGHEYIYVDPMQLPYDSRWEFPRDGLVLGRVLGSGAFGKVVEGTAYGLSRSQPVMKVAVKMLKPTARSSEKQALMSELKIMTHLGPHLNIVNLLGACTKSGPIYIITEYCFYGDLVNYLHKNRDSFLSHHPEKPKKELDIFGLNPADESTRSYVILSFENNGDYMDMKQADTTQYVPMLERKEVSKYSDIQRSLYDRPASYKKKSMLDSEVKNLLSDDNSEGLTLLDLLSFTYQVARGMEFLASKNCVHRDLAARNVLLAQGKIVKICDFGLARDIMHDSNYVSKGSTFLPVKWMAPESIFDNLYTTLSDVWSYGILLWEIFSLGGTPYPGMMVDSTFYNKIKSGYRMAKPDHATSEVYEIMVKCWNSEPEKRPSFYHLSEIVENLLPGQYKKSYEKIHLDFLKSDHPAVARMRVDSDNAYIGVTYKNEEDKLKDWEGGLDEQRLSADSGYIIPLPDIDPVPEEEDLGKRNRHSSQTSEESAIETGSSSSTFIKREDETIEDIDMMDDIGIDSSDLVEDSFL
T2 sequence (P10721 26-976): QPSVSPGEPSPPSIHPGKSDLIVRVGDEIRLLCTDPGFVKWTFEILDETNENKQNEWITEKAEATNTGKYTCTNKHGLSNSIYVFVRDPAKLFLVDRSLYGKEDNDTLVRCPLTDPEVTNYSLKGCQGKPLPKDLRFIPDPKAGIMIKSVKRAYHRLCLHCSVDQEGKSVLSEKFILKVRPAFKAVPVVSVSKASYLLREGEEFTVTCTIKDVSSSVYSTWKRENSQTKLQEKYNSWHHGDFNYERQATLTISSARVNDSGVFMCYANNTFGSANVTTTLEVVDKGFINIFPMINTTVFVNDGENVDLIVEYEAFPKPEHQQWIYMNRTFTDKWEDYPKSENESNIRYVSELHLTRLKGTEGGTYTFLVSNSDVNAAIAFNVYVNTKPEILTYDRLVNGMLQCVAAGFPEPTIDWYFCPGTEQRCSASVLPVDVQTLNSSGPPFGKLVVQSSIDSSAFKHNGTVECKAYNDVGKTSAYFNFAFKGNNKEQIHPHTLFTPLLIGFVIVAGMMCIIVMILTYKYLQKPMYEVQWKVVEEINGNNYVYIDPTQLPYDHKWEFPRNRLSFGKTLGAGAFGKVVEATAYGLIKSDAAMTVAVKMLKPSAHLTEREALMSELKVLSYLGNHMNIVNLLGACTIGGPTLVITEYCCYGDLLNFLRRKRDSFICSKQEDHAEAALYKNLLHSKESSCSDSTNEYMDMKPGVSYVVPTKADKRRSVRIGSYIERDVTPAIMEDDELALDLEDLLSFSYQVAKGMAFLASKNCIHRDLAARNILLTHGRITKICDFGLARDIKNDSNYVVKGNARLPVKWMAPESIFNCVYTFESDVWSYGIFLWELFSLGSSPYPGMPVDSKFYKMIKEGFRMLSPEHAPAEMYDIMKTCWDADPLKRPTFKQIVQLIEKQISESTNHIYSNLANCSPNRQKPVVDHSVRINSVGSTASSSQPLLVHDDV

With `CCN(CC)CCNC(=O)Nc1ccc(Oc2ccnc3cc(OC)c(OC)cc23)c(Cl)c1` [Example 651, N-{3-Chloro-4-[(6,7-dimethoxy-4-quinolyl)oxy]phenyl}-N′-[2-(diethylamino)ethyl]urea], the IC50 (usually the midpoint of a concentration-inhibition curve) at PDGF-Ra turned out to be 40 nM; on c-kit, 808 nM.

Turning to `COc1cc2ncnc(Oc3ccc(NC(=O)NCCN4CCOCC4)c([N+](=O)[O-])c3)c2cc1OC` [Example 652, N-{4-[(6,7-Dimethoxy-4-quinazolinyl)oxy]-2-nitrophenyl}-N′-(2-morpholinoethyl)urea], the concentration for half-maximal inhibition (IC50) came out at 43 nM on PDGF-Ra and 115 nM on c-kit.

Take `COc1cc2ncnc(Oc3ccc(NC(=O)NCCN4CCCC4)c([N+](=O)[O-])c3)c2cc1OC` [Example 653, N-{4-[(6,7-Dimethoxy-4-quinazolinyl)oxy]-2-nitrophenyl}-N′-(2-tetrahydro-1H-1-pyrrolylethyl)urea]: the half-maximal inhibitory concentration (IC50) is 23 nM on PDGF-Ra and 581 nM on c-kit.

As for `COc1cc2nccc(Oc3ccc(NC(=O)NCCN(C(C)C)C(C)C)cc3)c2cc1OC` [Example 654, N-[2-(Diisopropylamino)ethyl]-N′-{4-[(6,7-dimethoxy-4-quinolyl)oxy]phenyl}urea], the values for the half-inhibitory concentration (IC50) at PDGF-Ra and on c-kit were 19 nM and 698 nM, respectively.

As for `COc1cc2nccc(Oc3ccc(NC(=O)NCCN(C(C)C)C(C)C)c(C)c3C)c2cc1OC` [Example 655, N-[2-(Diisopropylamino)ethyl]-N′-{4-[(6,7-dimethoxy-4-quinolyl)oxy]-2,3-dimethylphenyl}urea], the IC50 on PDGF-Ra came out at 43 nM. Further, the inhibition – broadly, the change of the read-out against control, counted positive when it falls – at 1 µM on c-kit stood at 43%.

On to `COc1cc2ncnc(Oc3ccc(NC(=O)NCCN(C(C)C)C(C)C)cc3)c2cc1OC` [Example 656, N-[2-(Diisopropylamino)ethyl]-N′-{4-[(6,7-dimethoxy-4-quinazolinyl)oxy]phenyl}urea], for which, at PDGF-Ra, the concentration for half-maximal inhibition (IC50) stood at 19 nM. Also, the inhibition at 1 µM at c-kit was 32%.

For `COc1cc2ncnc(Oc3ccc(NC(=O)NCCN(C(C)C)C(C)C)c(Cl)c3)c2cc1OC` [Example 657, N-{2-Chloro-4-[(6,7-dimethoxy-4-quinazolinyl)oxy]phenyl}-N′-[2-(diisopropylamino)ethyl]urea], the 50% inhibitory concentration (IC50) on PDGF-Ra was 40 nM. On c-kit, the inhibition at 1 µM is 27%.

On to `COc1cc2nccc(Oc3ccc(NC(=O)NCCN(C(C)C)C(C)C)c([N+](=O)[O-])c3)c2cc1OC` [Example 658, N-[2-(Diisopropylamino)ethyl]-N′-{4-[(6,7-dimethoxy-4-quinolyl)oxy]-2-nitrophenyl}urea], for which the IC50 at PDGF-Ra came out at 19 nM; at c-kit it was 389 nM.

Consider `COc1cc(Oc2ncnc3cc(OC)c(OC)cc23)ccc1NC(=O)NCCN(C(C)C)C(C)C` [Example 660, N-[2-(Diisopropylamino)ethyl]-N′-{4-[(6,7-dimethoxy-4-quinazolinyl)oxy]-2-methoxyphenyl}urea], for which the values for the IC50 at PDGF-Ra and on c-kit were 25 nM and 835 nM, respectively.

For `CCN(CCNC(=O)Nc1ccc(Oc2ccnc3cc(OC)c(OC)cc23)cc1)c1cccc(C)c1` [Example 661, N-{4-[(6,7-Dimethoxy-4-quinolyl)oxy]phenyl}-N′-[2-(ethyl-3-methylanilino)ethyl]urea], the IC50 on PDGF-Ra was under 10 nM; at c-kit, 75 nM.

Regarding `CCN(CCNC(=O)Nc1cc(C)c(Oc2ccnc3cc(OC)c(OC)cc23)cc1C)c1cccc(C)c1` [Example 662, N-{4-[(6,7-Dimethoxy-4-quinolyl)oxy]-2,5-dimethylphenyl}-N′-[2-(ethyl-3-methylanilino)ethyl]urea], the IC50 was 23 nM at PDGF-Ra and 296 nM on c-kit.

With `CCN(CCNC(=O)Nc1ccc(Oc2ccnc3cc(OC)c(OC)cc23)c(C)c1C)c1cccc(C)c1` [Example 663, N-{4-[(6,7-Dimethoxy-4-quinolyl)oxy]-2,3-dimethylphenyl}-N′-[2-(ethyl-3-methylanilino)ethyl]urea], the IC50 at PDGF-Ra was under 10 nM; at c-kit, 202 nM.

`CCN(CCNC(=O)Nc1ccc(Oc2ncnc3cc(OC)c(OC)cc23)cc1)c1cccc(C)c1` [Example 664, N-{4-[(6,7-Dimethoxy-4-quinazolinyl)oxy]phenyl}-N′-[2-(ethyl-3-methylanilino)ethyl]urea]: the values for the IC50 on PDGF-Ra and at c-kit were under 10 nM and 97 nM, respectively.

On to `CCN(CCNC(=O)Nc1ccc(Oc2ncnc3cc(OC)c(OC)cc23)cc1Cl)c1cccc(C)c1` [Example 665, N-{2-Chloro-4-[(6,7-dimethoxy-4-quinazolinyl)oxy]phenyl}-N′-[2-(ethyl-3-methylanilino)ethyl]urea], for which the results for the IC50 on PDGF-Ra and on c-kit were 11 nM and 122 nM, respectively.

For the compound `CCN(CCNC(=O)Nc1ccc(Oc2ccnc3cc(OC)c(OC)cc23)cc1[N+](=O)[O-])c1cccc(C)c1` [Example 666, N-{4-[(6,7-Dimethoxy-4-quinolyl)oxy]-2-nitrophenyl}-N′-[2-(ethyl-3-methylanilino)ethyl]urea], the IC50 at PDGF-Ra turned out to be 10 nM; at c-kit, 134 nM.

Regarding `CCN(CCNC(=O)Nc1ccc(Oc2ncnc3cc(OC)c(OC)cc23)cc1[N+](=O)[O-])c1cccc(C)c1` [Example 667, N-{4-[(6,7-Dimethoxy-4-quinazolinyl)oxy]-2-nitrophenyl}-N′-[2-(ethyl-3-methylanilino)ethyl]urea], the IC50 was under 10 nM on PDGF-Ra and 100 nM on c-kit.

For `CCN(CCNC(=O)Nc1ccc(Oc2ncnc3cc(OC)c(OC)cc23)cc1OC)c1cccc(C)c1` [Example 668, N-{4-[(6,7-Dimethoxy-4-quinazolinyl)oxy]-2-methoxyphenyl}-N′-[2-(ethyl-3-methylanilino)ethyl]urea], the IC50 on PDGF-Ra is under 10 nM; at c-kit it was 144 nM.

On to `CCN(CCNC(=O)Nc1ccc(Oc2ccnc3cc(OC)c(OC)cc23)cc1Cl)c1cccc(C)c1` [Example 669, N-{2-Chloro-4-[(6,7-dimethoxy-4-quinolyl)oxy]phenyl}-N′-[2-(ethyl-3-methylanilino)ethyl]urea], for which the concentration for half-maximal inhibition (IC50) stood at 23 nM on PDGF-Ra and 134 nM at c-kit.

Regarding `CCN(CCNC(=O)Nc1ccc(Oc2ccnc3cc(OC)c(OC)cc23)cc1OC)c1cccc(C)c1` [Example 670, N-{4-[(6,7-Dimethoxy-4-quinolyl)oxy]-2-methoxyphenyl}-N′-[2-(ethyl-3-methylanilino)ethyl]urea], the IC50 on PDGF-Ra was found to be 15 nM; on c-kit it was 82 nM.

As for `COc1cc2nccc(Oc3cc(C)c(NC(=O)NCCN(C(C)C)C(C)C)cc3C)c2cc1OC` [Example 671, N-[2-(Diisopropylamino)ethyl]-N′-{4-[(6,7-dimethoxy-4-quinolyl)oxy]-2,5-dimethylphenyl}urea], at PDGF-Ra, the half-inhibitory concentration (IC50) is 64 nM. In addition, on c-kit, the inhibition at 1 µM was 22%.

On to `COc1cc(Oc2ccnc3cc(OC)c(OC)cc23)ccc1NC(=O)NCCN(C(C)C)C(C)C` [Example 672, N-[2-(Diisopropylamino)ethyl]-N′-{4-[(6,7-dimethoxy-4-quinolyl)oxy]-2-methoxyphenyl}urea], for which the IC50 at PDGF-Ra turned out to be 53 nM. Besides, the inhibition at 1 µM on c-kit worked out at 9%.

As to `COc1cc2nccc(Oc3ccc(NC(=O)NCCN4CCCCC4)cc3)c2cc1OC` [Example 673, N-{4-[(6,7-Dimethoxy-4-quinolyl)oxy]phenyl}-N′-(2-piperidinoethyl)urea], the IC50 was 15 nM on PDGF-Ra and 426 nM at c-kit.

As for `COc1cc2nccc(Oc3cc(C)c(NC(=O)NCCN4CCCCC4)cc3C)c2cc1OC` [Example 674, N-{4-[(6,7-Dimethoxy-4-quinolyl)oxy]-2,5-dimethylphenyl}-N′-(2-piperidinoethyl)urea], at PDGF-Ra, the half-maximal inhibitory concentration (IC50) was over 100 nM and the inhibition at 0.1 µM was 43%. The IC50 at c-kit turned out to be 854 nM.

Consider `COc1cc2nccc(Oc3ccc(NC(=O)NCCN4CCCCC4)c(C)c3C)c2cc1OC` [Example 675, N-{4-[(6,7-Dimethoxy-4-quinolyl)oxy]-2,3-dimethylphenyl}-N′-(2-piperidinoethyl)urea], for which the concentration for half-maximal inhibition (IC50) on PDGF-Ra amounted to 46 nM; on c-kit, 442 nM.

As to `COc1cc2ncnc(Oc3ccc(NC(=O)NCCN4CCCCC4)cc3)c2cc1OC` [Example 676, N-{4-[(6,7-Dimethoxy-4-quinazolinyl)oxy]phenyl}-N′-(2-piperidinoethyl)urea], the IC50 on PDGF-Ra was 26 nM; on c-kit, 632 nM.

In the case of `COc1cc2ncnc(Oc3ccc(NC(=O)NCCN4CCCCC4)c(Cl)c3)c2cc1OC` [Example 677, N-{2-Chloro-4-[(6,7-dimethoxy-4-quinazolinyl)oxy]phenyl}-N′-(2-piperidinoethyl)urea], the 50% inhibitory concentration (IC50) on PDGF-Ra amounted to 47 nM; at c-kit it was 730 nM.

Consider `COc1cc2nccc(Oc3ccc(NC(=O)NCCN4CCCCC4)c([N+](=O)[O-])c3)c2cc1OC` [Example 678, N-{4-[(6,7-Dimethoxy-4-quinolyl)oxy]-2-nitrophenyl}-N′-(2-piperidinoethyl)urea], for which the IC50 on PDGF-Ra was under 10 nM; on c-kit, 164 nM.

Consider `COc1cc(Oc2ncnc3cc(OC)c(OC)cc23)ccc1NC(=O)NCCN1CCCCC1` [Example 680, N-{4-[(6,7-Dimethoxy-4-quinazolinyl)oxy]-2-methoxyphenyl}-N′-(2-piperidinoethyl)urea], for which the IC50 on PDGF-Ra turned out to be 35 nM; on c-kit, 570 nM.

As to `CCCCN(CCCC)CCNC(=O)Nc1ccc(Oc2ccnc3cc(OC)c(OC)cc23)cc1` [Example 682, N-[2-(Dibutylamino)ethyl]-N′-{4-[(6,7-dimethoxy-4-quinolyl)oxy]phenyl}urea], at PDGF-Ra, the half-maximal inhibitory concentration (IC50) was over 100 nM and the inhibition at 0.1 µM worked out at 30%. In addition, at c-kit, the inhibition at 1 µM was determined as 32%.

Source of the values: patent US7135466B2 (Kirin Beer Kabushiki Kaisha, priority 1999, dated 2006).
